The text below walks through data of ChEMBL document CHEMBL1138166, “Synthesis and antimycobacterial activity of some alkyl [5-(nitroaryl)-1,3,4-thiadiazol-2-ylthio]propionates” (2006).

The subject of this test is Mycobacterium tuberculosis. The test can be described thus: Antimycobacterial activity against Mycobacterium tuberculosis H37Rv by microplate alamar blue assay. The format is functional. Particulars: for MIC: Mycobacterium tuberculosis, H37Rv. In general terms: Resazurin is reduced to fluorescent resorufin, in cell work by metabolically active cells.

SMILES strings stand for the structures. Converted amounts (≈) assume the structure as drawn. The source made the active and inactive calls. No cut-off for these calls is given here. Bounds are passed on as bounds.

Regarding `CCOC(=O)C(C)[S+]([O-])c1nnc(-c2ccc([N+](=O)[O-])s2)s1` (stereo not drawn), the outcome was inactive; the Inhibition (in general, the relative decrease from the control value, in per cent) came out at 12%; the MIC (usually the lowest concentration found to suppress growth) was over 6.25 µg/mL.

For the compound `CCOC(=O)C(C)[S+]([O-])c1nnc(-c2ccc([N+](=O)[O-])o2)s1` (stereo not drawn), the result was inactive, the Inhibition is 6% and the MIC is over 6.25 µg/mL.

With `CCOC(=O)C(C)S(=O)(=O)c1nnc(-c2ccc([N+](=O)[O-])s2)s1` (stereo not drawn), the outcome was inactive, the Inhibition stood at 82% and the MIC was over 6.25 µg/mL.

Consider `CCOC(=O)C(C)S(=O)(=O)c1nnc(-c2ncc([N+](=O)[O-])n2C)s1` (stereo not drawn), for which the result was Active, the Inhibition turned out to be 100% and the MIC was found to be 3.12 µg/mL (≈ 8.31 µM).

Take `COC(=O)CCSc1nnc(-c2ccc([N+](=O)[O-])o2)s1`: the result was inactive, the Inhibition came to 64% and the MIC is over 6.25 µg/mL.

On to `CCOC(=O)CCSc1nnc(-c2ccc([N+](=O)[O-])o2)s1`, for which the result was inactive, the Inhibition amounted to 14% and the MIC is over 6.25 µg/mL.

Consider `CCOC(=O)C(C)Sc1nnc(-c2ccc([N+](=O)[O-])o2)s1` (stereo not drawn), for which the result was Active, the Inhibition is listed as 98% and the MIC was determined as 6.25 µg/mL (≈ 19 µM).

Take `CCOC(=O)C(C)Sc1nnc(-c2ccc([N+](=O)[O-])s2)s1` (stereo not drawn): the outcome was Active, the Inhibition amounted to 92% and the MIC came out at 6.25 µg/mL (≈ 18.1 µM).

With `CCCOC(=O)CCSc1nnc(-c2ccc([N+](=O)[O-])s2)s1`, the result was Active, the Inhibition was determined as 98% and the lowest concentration to inhibit growth (MIC) was 1.56 µg/mL (≈ 4.34 µM).

`CCOC(=O)C(C)S(=O)(=O)c1nnc(-c2ccc([N+](=O)[O-])o2)s1` (stereo not drawn): the outcome was inactive, the Inhibition is given as 78% and the MIC was over 6.25 µg/mL.

Regarding `COC(=O)CCSc1nnc(-c2ccc([N+](=O)[O-])s2)s1`, the outcome was inactive, the Inhibition is given as 76% and the MIC is over 6.25 µg/mL.

Consider `CCOC(=O)CCSc1nnc(-c2ccc([N+](=O)[O-])s2)s1`, for which the outcome was inactive, the Inhibition is on record as 26% and the MIC was over 6.25 µg/mL.

`CCCCOC(=O)CCSc1nnc(-c2ccc([N+](=O)[O-])o2)s1`: the outcome was inactive, the Inhibition is recorded as 0% and the MIC was over 6.25 µg/mL.

`CCCOC(=O)CCSc1nnc(-c2ccc([N+](=O)[O-])o2)s1`: the outcome was inactive, the Inhibition was determined as 0% and the MIC was over 6.25 µg/mL.

On to `CCOC(=O)C(C)Sc1nnc(-c2ncc([N+](=O)[O-])n2C)s1` (stereo not drawn), for which the outcome was Active, the Inhibition is 90% and the MIC was determined as 6.25 µg/mL (≈ 18.2 µM).

As for `O=C(O)CCSc1nnc(-c2ccc([N+](=O)[O-])o2)s1`, the result was Active, the Inhibition was 95% and inhibition of growth (MIC) required 6.25 µg/mL (≈ 20.7 µM).

Consider `CO[C@H]1/C=C/O[C@@]2(C)Oc3c(C)c(O)c4c(O)c(c(/C=N/N5CCN(C)CC5)c(O)c4c3C2=O)NC(=O)/C(C)=C\C=C\[C@H](C)[C@H](O)[C@@H](C)[C@@H](O)[C@@H](C)[C@H](OC(C)=O)[C@@H]1C` [RIFAMPIN], for which the MIC stood at 0.5 µg/mL (≈ 0.608 µM).

Take `O=C(O)CCSc1nnc(-c2ccc([N+](=O)[O-])s2)s1`: the outcome was inactive, the Inhibition amounted to 0% and the MIC was over 6.25 µg/mL.

Turning to `CCCCOC(=O)CCSc1nnc(-c2ccc([N+](=O)[O-])s2)s1`, the outcome was Active, the Inhibition is on record as 98% and the MIC came to 6.25 µg/mL (≈ 16.7 µM).

`CCOC(=O)C(C)[S+]([O-])c1nnc(-c2ncc([N+](=O)[O-])n2C)s1` (stereo not drawn): the outcome was inactive, the Inhibition was found to be 11% and the MIC is over 6.25 µg/mL.
